Experimental findings from US20060014699A1, “Aqueous pharmaceutical formulaton comprising the thrombin inhibitor melagatran and use of the formulation in the manufacture of a medicament for use by nasal administration in treating thromboembolism” (AstraZeneca AB, priority 2002, published 2006) are described below.

A short description of data set [1]: Bioavailability of intranasal melagatran in rats, with and without absorption enhancers. The data set is classed as in vivo. As to conditions: rat, inhaled or intranasal. Here is the method:
Using standard techniques, melagatran was administered to rats in formulations with and without the enhancers SDS (sodium dodecyl sulfate) or EDTA. The bioavailability was measured by analysis of blood plasma samples using standrad techniques.

Data set [2] can be described thus: Rate and extent of absorption after intranasal administration to healthy male subjects. The data set is classed as in vivo, human. Particulars: healthy male humans; for bioavailability: male, human, plasma, inhaled or intranasal. Here is the method:
(§1) The rate and extent of absorption of melagatran as well as the safety and tolerability were investigated after intranasal administration to six healthy male subjects (between 20 and 40 years of age, body weight between 66 and 86 kg). The trial comprised three study days, separated by wash-out periods of 6-28 days. On study day 1, a single dose of 5 mg of melagatran was administered. The following two study days 10 mg and 20 mg, respectively, were administered.
(§2) Samples for determination of plasma concentration of melagatran (by LC-MS) and for degree of anticoagulation were collected before and up to 10 hours after drug administration. Safety measurements included blood pressure, heart rate and recording of adverse events.
(§3) The safety and tolerability of melagatran when administered nasally were considered satisfactory.

Data set [3] in a line: Safety and tolerability after intranasal administration to healthy male subjects. The data set is classed as in vivo, human. As to conditions: healthy male humans, nasal administration, 5, 10 and 20 mg; blood pressure, heart rate, adverse events. Here is the method:
as §1, §2, §3

Bounds are passed on as bounds.

In general, bioavailability refers to dose-corrected exposure relative to a reference, in per cent. With `N=C(N)c1ccc(CNC(=O)[C@@H]2CCN2C(=O)[C@H](NCC(=O)O)C2CCCCC2)cc1` [melagatran, HOOC—CH2—(R)-Cgl-Aze-Pab], the bioavailability in data set [1] (20 umol/kg, melagatran alone (no enhancer), blood plasma samples, read-out: bioavailability) is about 10%; in data set [1] (plasma, 20 μmol/kg, formulations with enhancers SDS or EDTA, read-out: bioavailability with enhancers), at most 19%; in data set [2] (5 mg, intranasal, single dose 5 mg, six subjects, read-out: median bioavailability) it was 19%; in data set [2] (10 mg, intranasal, single dose 10 mg, six subjects, read-out: median bioavailability), 12%; in data set [2] (20 mg, intranasal, 5, 10 and 20 mg, read-out: bioavailability, range over the six subjects at the three doses), 7 to 45%; in data set [2] (20 mg, intranasal, single dose 20 mg, six subjects, read-out: median bioavailability), 19%. The “dose dependence of rate or extent of absorption” value in data set [2] (intranasal, 5, 10 and 20 mg) is “no indication of a dose dependent rate or extent of absorption”. Moreover, the “absorption after intranasal administration (rate)” value in data set [2] (intranasal, 5-20 mg) is given as “rapid”. Also, the safety and tolerability result in data set [3] was “satisfactory”.
